{"source": "patent US11208408B2", "about": "“Method of controlling scale in aqueous systems” (NOURYON CHEMICALS INTERNATIONAL B.V., priority 2019, dated 2021)", "key": {"[1]": {"assay": "Fluorescent signal of starting amine, monomers and polymers at pH 7 (Example 22)", "type": "physicochemical", "settings": "45 ppb of amine or monomer", "procedure": "The fluorescent signal for the starting N-(3-dimethylaminopropyl)-4-methoxy-1,8-naphthalilmide, the monomers from Monomer Example 3 and 3a (comparative) and the polymers of Polymer Example 20 (comparative) and Polymer Example 21 were measured at 10 ppm polymer and 45 ppb of N-(3-dimethylaminopropyl)-4-methoxy-1,8-naphthalilmide and monomers at pH 7."}, "[2]": {"assay": "Fluorescent signal of polymers diluted to 10 ppm at pH 9 (Shimadzu RF-6000 spectro fluorimeter)", "type": "physicochemical", "settings": "non-monomer intermediate at 59 ppb", "procedure": "The polymer samples from Polymer Examples 1-4 each were diluted in water to 10 ppm and the pH was adjusted to 9, and the fluorescent signal was determined by excitation of the sample at the excitation wavelengths and measurement at the emission wavelengths as stated in Table 1 using a Shimadzu RF-6000 model spectro fluorimeter.\nThe fluorescence signal for the polymer of Example 1 at 10 ppm and at pH 9 was measured. Also, the fluorescence intensity of the intermediate N-(3-dimethylaminopropyl)-4-methoxy-1,8-naphthalilmide non-monomer intermediate used to synthesize the monomer used in Example 1 was measured at pH 9 and at 59 ppb. The 59 ppb was used because this is the amount of monomer that would have been present in 10 ppm of polymer."}}, "note": "Structures can show the parent of a compound that is named as a salt."}
{"molecule": "4-methoxy-N-(3-dimethylaminopropyl)-1,8-naphthalimide, 2-hydroxy-3-allyloxy propyl, quaternary salt [Monomer Example 3a, reference compound]", "values": [{"measurement": "Emission wavelength λ", "setting": "[1]", "value": 460, "unit": "nm"}, {"measurement": "Excitation wavelength λ", "setting": "[1]", "value": 376, "unit": "nm"}, {"measurement": "Fluorescence intensity", "setting": "[1]", "value": 8312}]}
{"molecule": "C=CCOCC(O)C[N+](C)(C)CCCN1C(=O)c2cccc3c(OC)ccc(c23)C1=O", "note": "(stereo not drawn) [Monomer Example 3, 4-methoxy-N-(3-dimethylaminopropyl)-1,8-naphthalimide, 1 or 2-hydroxy-3-allyloxy propyl, quaternary salt]", "values": [{"measurement": "Emission wavelength λ", "setting": "[1]", "value": 460, "unit": "nm"}, {"measurement": "Excitation wavelength λ", "setting": "[1]", "value": 376, "unit": "nm"}, {"measurement": "Fluorescence intensity", "setting": "[1]", "value": 6774}]}
{"molecule": "COc1ccc2c3c(cccc13)C(=O)N(CCCN(C)C)C2=O", "note": "[N-(3-dimethylaminopropyl)-4-methoxy-1,8-naphthalimide]", "values": [{"measurement": "Emission wavelength λ", "setting": "[1]", "value": 460, "unit": "nm"}, {"measurement": "Excitation wavelength λ", "setting": "[1]", "value": 376, "unit": "nm"}, {"measurement": "Fluorescence intensity", "setting": "[1]", "value": 9850}, {"measurement": "Emission wavelength λ", "setting": "[2]", "value": 462, "unit": "nm"}, {"measurement": "Excitation wavelength λ", "setting": "[2]", "value": 376, "unit": "nm"}, {"measurement": "Fluorescence intensity", "setting": "[2]", "value": 7788}]}
